Legend:
[1] = system: Jurkat cells; experiment: Measurement of cell proliferation activity (Jurkat cell), XTT assay; format: cell-based; conditions: Homo sapiens, 72 hrs incubation, cell viability by XTT assay
From the text: Measurement of Cell Proliferation Activity (Jurkat Cell)
Jurkat cells are an immortalized cell line of T lymphocyte cells, which are used to study acute T cell leukaemia, T cell signalling, and the expression of various chemokine receptors susceptible to viral entry, particularly HIV. Jurkat cells are also useful in science because of their ability to produce interleukin 2. Their primary use, however, is to determine the mechanism of differential susceptibility of cancers to drugs and radiation.
Jurkat cells are cultured in RPMI medium with 10% FBS, and seeded at a density of 100,000 cells per well in a 96 well plate. Compound is added at different concentrations (typically starting at 10 μM followed by half log dilutions for a total of 8-10 concentrations). Each concentration is tested in triplicate and DMSO concentration is kept constant at 0.25-0.5%. The cells are then incubated in a CO2 incubator at 37° C. for 72 hrs before determining cell viability using XTT assay. Cell viability is plotted as a function of concentration and EC50 is determined using GraphPad Prism software
• Roehm, N et al [1991] An improved colorimetric assay for cell proliferation and viability utilizing the tetrazolium salt XTT. J. Immunol. Methods 142:257-265. Reagents: Roswells park memorial institute's medium, (RPMI-1640 complete media) pH-7.4±0.2 (Sigma R6504). • Dimethyl sulfoxide (DMSO), spectroscopic grade purchased from Spectrochem, (cat no. 0704209, B. no.—3183650 MEM Cat. No. M0268, Sigma). Fetal Bovine Serum (Cat. No. F9665, Sigma Aldrich). XTT sodium salt (Sigma Cat. No. X4251). PMS (Sigma Cat. No. 68600). Preparation of Solutions/Reagents
RPMI media supplemented with antibiotics, 10% FBS, Sodium Pyruvate and NEA (non essential amino acids).
XTT—A freshly prepared solution of XTT is made in the growth medium, with a final concentration of 1 mg/ml.
PMS—Stock is prepared with 1×PBS at 0.383 mg/ml and stored in aliquots at −20° C. The XTT solution at 20 μl/ml was added just before use.
Test solution—Serially diluted DMSO solutions are further diluted with media to 2× the required concentration in well.
Culture Jurkat cells in T-25 flasks at a density of 0.2×10^6/ml 2-3 days before the day of experiment set up.
Centrifuge Jurkat T-cell suspension at 1200 rpm for 10 minutes and resuspend cells again in fresh RPMI medium with 10% FBS. Count the cells and dilute suspension to a density of 2×10^6 cells/ml. Seed 50 μL of this suspension in each well of a 96 well plate (100,000 cells per well). Keep the edges of the plate empty to avoid evaporation. […]
XTT assay: to each well, add 50 μL of 1 mg/ml XTT solution with 20 μl of PMS/mL. Read the plates after 2 hours at 465 nm using the spectrophotometer. XTT reading for media without cells is used as background reading. […]

[2] = biological target: T1, DHODH (Homo sapiens (Human), UniProt Q02127); experiment: Measurement of DHODH inhibitory enzyme activity (coupled DCIP reduction assay); format: biochemical
T1 sequence (Q02127 whole entry): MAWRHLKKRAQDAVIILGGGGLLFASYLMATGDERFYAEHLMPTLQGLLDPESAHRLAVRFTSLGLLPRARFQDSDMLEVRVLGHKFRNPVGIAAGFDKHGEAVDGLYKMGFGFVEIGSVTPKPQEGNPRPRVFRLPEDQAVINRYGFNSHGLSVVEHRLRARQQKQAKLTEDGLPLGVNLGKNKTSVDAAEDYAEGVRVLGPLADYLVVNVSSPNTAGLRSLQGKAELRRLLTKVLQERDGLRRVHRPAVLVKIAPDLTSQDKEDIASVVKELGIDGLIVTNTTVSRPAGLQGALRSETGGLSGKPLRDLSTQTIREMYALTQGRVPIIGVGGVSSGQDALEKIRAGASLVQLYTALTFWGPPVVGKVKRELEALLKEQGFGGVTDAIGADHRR
From the text: Measurement of DHODH Inhibitory Enzyme Activity (In Vitro Assays)
The DHODH activity assay is a coupled enzyme assay in which oxidation of DHO and subsequent reduction of ubiquinone are stoichiometrically equivalent to the reduction of DCIP ([…]). The reduction of DCIP is accompanied by a loss of absorbance at 610 nm.
Reagents used: L-Dihydroorotic acid, Sigma, D7128, 2,6-Dichloroindophenol sodium salt hydrate, sigma, D1878 Dimethyl sulfoxide (DMSO), spectroscopic grade purchased from Spectrochem, cat no. 0704209, B. no.—3183650 Decylubiquinone, Sigma, D7911.
Preparation of Solutions/Reagents:
Buffer Preparation: 50 mM tris HCl, 150 mM KCl, and pH 8.0, 0.8% triton.
L-Dihydroorotic acid stock solution of 20 mM in buffer.
2, 6-Dichloroindophenol Sodium salt hydrate stock solution of 20 mM in buffer.
Decylubiquinone stock solution of 20 mM in buffer.
5 μL of Dimethyl sulfoxide or a compound of formula (I) in DMSO solution was added to the wells of a 96 well plate. Compounds of formula (I) were measured at 10 μM.
Protein along with buffer was added, so that the total volume including the DMSO was 87 μL. Compound and protein were incubated for half an hour at room temperature after mixing. 5 μL of 20 mM solution of L-Dihydroorotic acid, 5 μL of 2 mM solution of Decylubiquinone and 3 μL of 2 mM solution of 2, 6-Dichloroindophenol sodium salt hydrate were added to the above solution (total assay volume 100 μL). The mixture was stirred for 2 min and absorbance was recorded at every 10 min at 610 nanometers.
Percent inhibition is calculated as follows 100*{(Abs610 for reaction containing compound)−(Abs610 for positive control) (Abs610 for no enzyme reaction)−(Abs610 for positive control) Reaction containing compound has compound, buffer, enzyme and substrates Positive control contains DMSO, buffer, enzyme and substrates No Enzyme reaction contains DMSO, buffer and substrates IC50 determination: A 2 mM DMSO stock solution of the selected 1, 4, 6-trisubstituted-2-alkyl-1H-benzo[d]imidazole derivatives of formula (I) of the present invention to be examined was prepared. Subsequent ⅓rd dilutions were made as follows:
5 μL of each stock of compound of formula (I) (solution indicated in column 4 of table) was used for each 100 μL assay. Therefore, 5 μL of the 2 mM stock provided 100 μL of 100 μM solution of compound of formula (I), when made up with buffer, protein and substrate. See also: Ulrich et al. (2001) Eur. J. Biochem. 268, 1861-1868.

[3] = biological target: T1, DHODH; conditions: DHODH versus protein tyrosine kinase; cited from earlier work

EC50 [1] [µM]	IC50 [2] [µM]	Structure (SMILES)	fold greater inhibitor of DHODH than of protein tyrosine kinase [3]
0.032	0.01 to 0.099	COc1cccc(-c2ccc(-c3cc(C(=O)O)c4nc(C)[nH]c4c3)cc2)c1 [Example 10, 6-(3'-methoxy-[1,1'-biphenyl]-4-yl)-2-methyl-1H-benzo[d]imidazole-4-carboxylic acid]	–
0.111	0.01 to 0.099	COc1ccccc1-c1ccc(-c2cc(C(=O)O)c3nc(C)[nH]c3c2)cc1 [Example 18, 6-(2'-methoxy-[1,1'-biphenyl]-4-yl)-2-methyl-1H-benzo[d]imidazole-4-carboxylic acid]	–

The next lines start with the molecule.

Structure (SMILES)	EC50 [1] [µM]	IC50 [2] [µM]	fold greater inhibitor of DHODH than of protein tyrosine kinase [3]
Cc1nc2c(C(=O)O)cc(-c3ccc(-c4ccccc4)cc3)cc2[nH]1 [Example 1, 6-([1,1'-biphenyl]-4-yl)-2-methyl-1H-benzo[d]imidazole-4-carboxylic acid]	0.133	0.01 to 0.099	–
Cc1nc2c(C(=O)O)cc(-c3ccc(-c4ccccc4F)cc3)cc2[nH]1 [Example 5, 6-(2'-fluoro-[1,1'-biphenyl]-4-yl)-2-methyl-1H-benzo[d]imidazole-4-carboxylic acid]	0.049	0.01 to 0.099	–
Cc1nc2c(C(=O)O)cc(-c3ccc(-c4c(C)cccc4C)cc3)cc2[nH]1 [Example 145, 6-(2',6'-dimethyl-[1,1'-biphenyl]-4-yl)-2-methyl-1H-benzo[d]imidazole-4-carboxylic acid]	–	0.01 to 0.099	–
Cc1nc2c(C(=O)O)cc(-c3ccc(-c4c(F)cccc4CN4CCCC4)cc3)cc2[nH]1 [Example 150, 6-(2'-fluoro-6'-(pyrrolidin-1-ylmethyl)-[1,1'-biphenyl]-4-yl)-2-methyl-1H-benzo[d]imidazole-4-carboxylic acid.2,2,2-trifluoroacetic acid]	–	0.001 to 0.0099	–
C/C(O)=C(\C#N)C(=O)Nc1ccc(C(F)(F)F)cc1 [Teriflunomide]	–	–	100-1,000 fold

Reference: US11028054B2, “1, 4, 6-trisubstituted-2-alkyl-1H-benzo[d]imidazole derivatives as dihydroorotate oxygenase inhibitors” (Merck Patent GmbH, priority 2017, dated 2021)
